Test results reported in patent US9993494B2, “Compositions and methods for treating fibrotic disease” (eFFECTOR Therapeutics, Inc., priority 2014, dated 2018).

System: normal human lung fibroblasts
Assay: Ribosomal profiling: translational efficiency in TGFβ-treated fibroblasts
Assay type: cell-based
Conditions: TGFβ-treated fibroblasts
Method in brief: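 Genome-wide RPF and total RNA libraries (ARTseq, RNA-Seq) were made from lysates of cycloheximide-treated, PBS-washed cells. After trimming and human-genome mapping, per-gene coding-region counts were compared between RPF and RNA for translational efficiency. Genes scoring low in either fraction were dropped.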

Cc1ccc(=O)n(-c2ccccc2)c1 [pirfenidone, 5-methyl-1-phenylpyridin-2-one]
effect in renormalizing the translational profile of the gene (gene RPS6KA5 (ENSG00000100784)): − (− = <0.9)
effect in renormalizing the translational profile of the gene (gene RPS7 (ENSG00000171863)): − (− = <0.9)
effect in renormalizing the translational profile of the gene (gene RPS8 (ENSG00000142937)): + (+ = 0.9 to 1.5)
effect in renormalizing the translational profile of the gene (gene RPS9 (ENSG00000170889)): + (+ = 0.9 to 1.5)
effect in renormalizing the translational profile of the gene (gene RPS10 (ENSG00000124614)): + (+ = 0.9 to 1.5)
effect in renormalizing the translational profile of the gene (gene RPS11 (ENSG00000142534)): − (− = <0.9)
effect in renormalizing the translational profile of the gene (gene RPS12 (ENSG00000112306)): − (− = <0.9)
effect in renormalizing the translational profile of the gene (gene RPS13 (ENSG00000110700)): − (− = <0.9)
effect in renormalizing the translational profile of the gene (gene RPS14 (ENSG00000164587)): − (− = <0.9)
effect in renormalizing the translational profile of the gene (gene RPS15 (ENSG00000115268)): + (+ = 0.9 to 1.5)
effect in renormalizing the translational profile of the gene (gene RPS15A (ENSG00000134419)): + (+ = 0.9 to 1.5)
effect in renormalizing the translational profile of the gene (gene RPS16 (ENSG00000105193)): + (+ = 0.9 to 1.5)
effect in renormalizing the translational profile of the gene (gene RPS18 (ENSG00000231500)): + (+ = 0.9 to 1.5)
effect in renormalizing the translational profile of the gene (gene RPS19 (ENSG00000105372)): + (+ = 0.9 to 1.5)
effect in renormalizing the translational profile of the gene (gene RPS20 (ENSG00000008988)): − (− = <0.9)
effect in renormalizing the translational profile of the gene (gene RPS21 (ENSG00000171858)): − (− = <0.9)
effect in renormalizing the translational profile of the gene (gene RPS23 (ENSG00000186468)): − (− = <0.9)
effect in renormalizing the translational profile of the gene (gene RPS24 (ENSG00000138326)): − (− = <0.9)
effect in renormalizing the translational profile of the gene (gene RPS25 (ENSG00000118181)): − (− = <0.9)
effect in renormalizing the translational profile of the gene (gene RPS26 (ENSG00000197728)): − (− = <0.9)
effect in renormalizing the translational profile of the gene (gene RPS27 (ENSG00000177954)): + (+ = 0.9 to 1.5)
effect in renormalizing the translational profile of the gene (gene RPS27A (ENSG00000143947)): − (− = <0.9)
effect in renormalizing the translational profile of the gene (gene RPS28 (ENSG00000233927)): + (+ = 0.9 to 1.5)
effect in renormalizing the translational profile of the gene (gene RPS29 (ENSG00000213741)): + (+ = 0.9 to 1.5)
effect in renormalizing the translational profile of the gene (gene RPSA (ENSG00000168028)): − (− = <0.9)
effect in renormalizing the translational profile of the gene (gene RTN2 (ENSG00000125744)): − (− = <0.9)
effect in renormalizing the translational profile of the gene (gene SEMA3A (ENSG00000075213)): − (− = <0.9)
effect in renormalizing the translational profile of the gene (gene SGIP1 (ENSG00000118473)): − (− = <0.9)
effect in renormalizing the translational profile of the gene (gene SH3BGR (ENSG00000185437)): − (− = <0.9)
effect in renormalizing the translational profile of the gene (gene SHC3 (ENSG00000148082)): − (− = <0.9)
effect in renormalizing the translational profile of the gene (gene SLC2A12 (ENSG00000146411)): − (− = <0.9)
effect in renormalizing the translational profile of the gene (gene SLC7A7 (ENSG00000155465)): − (− = <0.9)
effect in renormalizing the translational profile of the gene (gene SLC15A3 (ENSG00000110446)): − (− = <0.9)
effect in renormalizing the translational profile of the gene (gene SLC25A6 (ENSG00000169100)): + (+ = 0.9 to 1.5)
effect in renormalizing the translational profile of the gene (gene SLC40A1 (ENSG00000138449)): ++ (++ = 1.5 to 2.0)
effect in renormalizing the translational profile of the gene (gene SMO (ENSG00000128602)): − (− = <0.9)
effect in renormalizing the translational profile of the gene (gene SNRPA (ENSG00000077312)): − (− = <0.9)
effect in renormalizing the translational profile of the gene (gene SOX5 (ENSG00000134532)): − (− = <0.9)
effect in renormalizing the translational profile of the gene (gene SOX6 (ENSG00000110693)): + (+ = 0.9 to 1.5)
effect in renormalizing the translational profile of the gene (gene SPATA6 (ENSG00000132122)): + (+ = 0.9 to 1.5)
effect in renormalizing the translational profile of the gene (gene STAMBPL1 (ENSG00000138134)): + (+ = 0.9 to 1.5)
effect in renormalizing the translational profile of the gene (gene STS (ENSG00000101846)): + (+ = 0.9 to 1.5)
effect in renormalizing the translational profile of the gene (gene SYNE2 (ENSG00000054654)): − (− = <0.9)
effect in renormalizing the translational profile of the gene (gene TAF1D (ENSG00000166012)): + (+ = 0.9 to 1.5)
effect in renormalizing the translational profile of the gene (gene TDG (ENSG00000139372)): − (− = <0.9)
effect in renormalizing the translational profile of the gene (gene TEN1 (ENSG00000257949)): − (− = <0.9)
effect in renormalizing the translational profile of the gene (gene TET2 (ENSG00000168769)): − (− = <0.9)
effect in renormalizing the translational profile of the gene (gene TET3 (ENSG00000187605)): − (− = <0.9)
effect in renormalizing the translational profile of the gene (gene TGFBI (ENSG00000120708)): − (− = <0.9)
effect in renormalizing the translational profile of the gene (gene THBS3 (ENSG00000169231)): + (+ = 0.9 to 1.5)
effect in renormalizing the translational profile of the gene (gene THG1L (ENSG00000113272)): − (− = <0.9)
effect in renormalizing the translational profile of the gene (gene TIMM9 (ENSG00000100575)): − (− = <0.9)
effect in renormalizing the translational profile of the gene (gene TKT (ENSG00000163931)): + (+ = 0.9 to 1.5)
effect in renormalizing the translational profile of the gene (gene TMTC1 (ENSG00000133687)): − (− = <0.9)
effect in renormalizing the translational profile of the gene (gene TOMM7 (ENSG00000196683)): − (− = <0.9)
effect in renormalizing the translational profile of the gene (gene TOP2A (ENSG00000131747)): − (− = <0.9)
effect in renormalizing the translational profile of the gene (gene TPGS1 (ENSG00000141933)): − (− = <0.9)
effect in renormalizing the translational profile of the gene (gene TPM2 (ENSG00000198467)): − (− = <0.9)
effect in renormalizing the translational profile of the gene (gene TPT1 (ENSG00000133112)): − (− = <0.9)
effect in renormalizing the translational profile of the gene (gene TRERF1 (ENSG00000124496)): − (− = <0.9)
effect in renormalizing the translational profile of the gene (gene UBA52 (ENSG00000221983)): − (− = <0.9)
effect in renormalizing the translational profile of the gene (gene UQCRB (ENSG00000156467)): − (− = <0.9)
effect in renormalizing the translational profile of the gene (gene UTRN (ENSG00000152818)): − (− = <0.9)
effect in renormalizing the translational profile of the gene (gene VIM (ENSG00000026025)): − (− = <0.9)
effect in renormalizing the translational profile of the gene (gene ZNF581 (ENSG00000171425)): − (− = <0.9)
effect in renormalizing the translational profile of the gene (gene ZNF608 (ENSG00000168916)): − (− = <0.9)
